Measurements from article PMC9436819 (JACC: Basic to Translational Science, 2022).
Values joined by “and” are separate entries in the source; they are usually repeats but may differ in a detail not shown here. Equal values may be shown once. Marks after values point to notes of the source that are not given here.

Assays:
healthy adults [1] = assay: Echocardiography (core laboratory) pharmacodynamics, SAD cohorts; format: in vivo, human
Experimental: For PD assessments of LVEF, echocardiograms for the SAD and MAD cohorts were interpreted by the echocardiography core laboratory and used for all data analysis and dose-level review decisions, and immediate local interpretation of the echocardiograms was performed for safety monitoring. […] Echocardiograms on day 3 (48 hours after dosing) were obtained only if the 24-hour LVEF had not returned to near or above baseline, as determined by the investigator. In the MAD cohorts, echocardiograms were obtained on day -1; predose on day 1; at 1.5 hours postdose on days 2, 4, and 9; and at 1.5, 24, and 72 hours postdose on day 14 (for the 5-mg and 10-mg cohorts) or on day 17 (for the 7.5-mg cohort). Echocardiograms were obtained 3 days after the last dose (on day 17 or 20) only if the participant’s prior LVEF was not near or above baseline, as determined by the investigator.
Using echocardiography instrumentation certified for clinical use, echocardiographic images were obtained from standard views based on American Society of Echocardiography recommendations for chamber quantification.[19] To obtain the LVEF, the endocardial borders of 3 different cardiac cycles were traced at both end diastole and end systole from the apical 4- and 2-chamber views and LV end-diastolic volume (LVEDV) and LV end-systolic volume (LVESV), calculated using the Simpson’s method of discs algorithm. Ejection fraction was calculated in the standard manner: LVEF = (LVEDV − LVESV)/LVEDV. The intraobserver variability (coefficient of variation) for LVEF was 8%.
All participants who received ≥1 dose of the study drug and had ≥1 predose and ≥1 postdose echocardiographic measurements were included in the PD analysis set. […] Descriptive statistics of the echocardiographic parameters were generated using SAS, version 9.3 or higher. Dose-response analysis was performed using analysis of covariance to identify the least-squares mean difference (aficamten minus placebo), as described in the Supplemental Appendix. Analyses of concentration “bin” and exposure-response were also performed using analysis of covariance, as described in the Supplemental Appendix. SAS PROC MIXED was used for all comparative analyses.
Statistical A nalysis of P harmacodynamic (PD) P aram eters
To analyze the impact of drug dose on echocardiographic parameters in the SAD and MAD
cohorts, an inferential analysis was conducted on t he PD analysis set using linear mixed models
for rep eated -measur es an alysis of covarian ce ( AN COVA). The A NCOVA used baseline valu e as
a covariate, included treatment, time-point, and time-point-by- treatment interaction as fixed
effects, and ch ange f rom baseline as the d ependent variable. Th e unstructur ed varian ce-
covarian ce structu re w as used, and the model acco unted for the time- point r epeated m easur es.
The ANCOVA analysis was conducted separately for each study part and f or each PD p aram eter .
The least-squares means, the difference in least squares means (active minus placebo), and the
associated 2-sided 95% CIs were presented for each comparison.
Concentration bin analysis
An additional inferential analysis was performed i n the SAD and MAD cohorts , to evaluate the
analysis set. A concentrat ion bin ANCOVA was conducted using linear mi xed models for
repeat ed-measures an aly ses with concentr ation bin group as a fix ed ef fect, baseline PD
parameters as a covari ate, change f rom baseline as the dependent v ariable, and a random
intercept to adjust for the repeat ed measures. The unstructured variance-co variance structur e was
used.Plasma concentr ations of aficamten wer e paired with coincident PD parameters. The
ANCOVA compared the change in PD parameters between each bin versus the pooled placebo
group. The least-squ ares means, the differen ce in l east squares m eans (bin group minus placebo),
and the associat ed 2-sided 95% CIs were pres ented for each comparison. The ANCOVA analysis

healthy adults [2] = assay: Treatment-emergent adverse events, single ascending dose (SAD) cohorts; format: in vivo, human
Experimental: The SAD portion of the study used a randomized, double-blind, placebo-controlled, sequential, escalating dose design, in which participants received single ascending oral doses of the study drug. Seven cohorts were dosed in sequence (Figure 1). […] Safety was assessed by the incidence of adverse events (AEs) and by the incidence of reduced LVEF. Treatment-emergent AEs (TEAEs) were defined as AEs that began or increased after study drug administration. All AEs were coded using the Medical Dictionary for Regulatory Activities, version 21.1, and graded using the National Cancer Institute Common Terminology Criteria for AEs (version 4.03) 5-point severity scale.[18] Each AE was judged as either related or unrelated to the study drug by the treating investigator. Clinical laboratory tests were obtained at regular intervals in all cohorts.

[3] = SAD 50 mg (n = 11), […] postdose

CCc1nc(-c2ccc3c(c2)CC[C@H]3NC(=O)c2cnn(C)c2)no1 [Aficamten]
Participants with absolute reduction in LVEF of ≥5% from baseline (healthy adults [1]; SAD 1 mg): no participants | Participants with absolute reduction in LVEF of ≥5% from baseline (healthy adults [1]; SAD 3 mg, 1 of 6): 17% | Participants with absolute reduction in LVEF of ≥5% from baseline (healthy adults [1]; SAD 10 mg): no participants | Participants with absolute reduction in LVEF of ≥5% from baseline (healthy adults [1]; SAD 25 mg): no participants | Participants with absolute reduction in LVEF of ≥10% (healthy adults [1]; SAD 40 mg, 1 of 6): 17% | Participants with absolute reduction in LVEF of ≥5% from baseline (healthy adults [1]; SAD 40 mg, 2 of 6): 33% | A (peak A wave velocity), mean (healthy adults [1]; [3]): 54.5 cm/s | A (peak A wave velocity), mean change from baseline (healthy adults [1]; [3]): 2.5 cm/s | E (peak E wave velocity), mean (healthy adults [1]; [3]): 64.0 cm/s | E (peak E wave velocity), mean change from baseline (healthy adults [1]; [3]): -2.7 cm/s | Heart rate, mean (healthy adults [1]; [3]): 62.3 bpm | Heart rate, mean change from baseline (healthy adults [1]; [3]): 0.5 bpm | IVCT, mean (healthy adults [1]; [3]): 42.6 ms | IVCT, mean change from baseline (healthy adults [1]; [3]): 0.4 ms | IVRT, mean (healthy adults [1]; [3]): 69.3 ms | IVRT, mean change from baseline (healthy adults [1]; [3]): 0.5 ms | LAV, mean (healthy adults [1]; [3]): 35.7 mL | LAV, mean change from baseline (healthy adults [1]; [3]): 0.0 mL | LV CO, mean (healthy adults [1]; [3]): 3240 mL | LV CO, mean change from baseline (healthy adults [1]; [3]): -346 mL | LV EDV, mean (healthy adults [1]; [3]): 99.8 mL | LV EDV, mean change from baseline (healthy adults [1]; [3]): 6.6 mL | LV ESV, mean (healthy adults [1]; [3]): 39.7 mL | LV ESV, mean change from baseline (healthy adults [1]; [3]): 8.1 mL | LV ET, mean (healthy adults [1]; [3]): 328 ms | LV SV, mean (healthy adults [1]; [3]): 52.6 mL | LV SV, mean change from baseline (healthy adults [1]; [3]): -6.2 mL | LVEF, mean (healthy adults [1]; [3]): 60.5% | LVEF, mean change from baseline (healthy adults [1]; [3]): -5.8% | e' lateral, mean (healthy adults [1]; [3]): 10.2 cm/s | e' lateral, mean change from baseline (healthy adults [1]; [3]): -1.3 cm/s | Participants with reduction in LVEF to <50% (healthy adults [1]; SAD 50 mg, 2 of 11, core laboratory): 18% | Participants with absolute reduction in LVEF of ≥5% from baseline (healthy adults [1]; SAD 50 mg, 7 of 11): 64% | Mean maximum reduction in LVEF from baseline (healthy adults [1]; SAD 50 mg, […] postdose): 5.8% | Reduction in LVEF, placebo corrected least-squares mean difference (healthy adults [1]; SAD 50 mg, […] postdose): 5.5% | LVEF of the individual participants with LVEF <50% (healthy adults [1]; SAD 50 mg, per core laboratory assessment): 48.2% and 45.5% | Participants with absolute reduction in LVEF of ≥5% from baseline (healthy adults [1]; SAD 75 mg, 1 of 1): 100% | Participants with reduction in LVEF to <50% (healthy adults [1]; SAD 75 mg, 1 of 1, core laboratory): 100% | Participants with absolute reduction in LVEF of ≥10% (healthy adults [1]; SAD 75 mg, 1 participant): 100% | LVEF of the participant (only participant with LVEF <45%) (healthy adults [1]; SAD 75 mg, core laboratory): < 45% | Relationship of LVEF to plasma concentration (healthy adults [1]; SAD cohorts, highest concentration bin 122-524 ng/mL P < 0.001, concentration-slope analysis P = 0.003): statistically significant decrease | Time for reversal of decreases in LVEF to <50% (healthy adults [1]; following single doses): ≤ 6 h | Time for LVEF to return to baseline (healthy adults [1]; participants whose LVEFs fell below 50%): ≤ 24 h | Time after dosing at which LVEF <50% was noted (healthy adults [1]; single 50 or 75 mg): approximately 1.5 hours | Participants with any TEAE (healthy adults [2]; SAD 1 mg, n = 6): 1 (17) n (%) | Participants with any TEAE (healthy adults [2]; SAD 10 mg, n = 6): 1 (17) n (%) | TEAE: Headache (healthy adults [2]; SAD 10 mg, n = 6): 1 (17) n (%) | Participants with any TEAE (healthy adults [2]; SAD 25 mg, n = 6): 5 (83) n (%) | TEAE: Abdominal tenderness (healthy adults [2]; SAD 25 mg, n = 6): 1 (17) n (%) | TEAE: Dyspepsia (healthy adults [2]; SAD 25 mg, n = 6): 1 (17) n (%) | TEAE: Flatulence (healthy adults [2]; SAD 25 mg, n = 6): 1 (17) n (%) | TEAE: Headache (healthy adults [2]; SAD 25 mg, n = 6): 2 (33) n (%) | TEAE: Nausea (healthy adults [2]; SAD 25 mg, n = 6): 2 (33) n (%) | TEAE: Upper abdominal pain (healthy adults [2]; SAD 25 mg, n = 6): 2 (33) n (%) | Participants with any TEAE (healthy adults [2]; SAD 40 mg, n = 6): 1 (17) n (%) | TEAE: Ejection fraction decreased (healthy adults [2]; SAD 40 mg, n = 6): 1 (17) n (%) | Participants with any TEAE (healthy adults [2]; SAD 50 mg, n = 11): 4 (36) n (%) | TEAE: Abdominal tenderness (healthy adults [2]; SAD 50 mg, n = 11): 1 (9) n (%) | TEAE: Dyspepsia (healthy adults [2]; SAD 50 mg, n = 11): 1 (9) n (%) | TEAE: Ejection fraction decreased (healthy adults [2]; SAD 50 mg, n = 11): 1 (9) n (%) | TEAE: Flatulence (healthy adults [2]; SAD 50 mg, n = 11): 1 (9) n (%) | TEAE: Headache (healthy adults [2]; SAD 50 mg, n = 11): 1 (9) n (%) | TEAE: Chest pain (healthy adults [2]; SAD 50 mg, n = 11, bubbling sensation to the left chest, consistent with a gastrointestinal rather than cardiac association): 1 (9) ^a n (%) | Participants with any TEAE (healthy adults [2]; SAD 75 mg, n = 1): 1 (100) n (%) | TEAE: Ejection fraction decreased (healthy adults [2]; SAD 75 mg, n = 1): 1 (100) n (%) | TEAE: Chest pain (healthy adults [2]; SAD 75 mg, n = 1, onset approximately 60 hours postdose): 1 (100) ^b n (%)
